Paper PMC6152416, “Pharmacological and Toxicological Screening of Novel Benzimidazole-Morpholine Derivatives as Dual-Acting Inhibitors” (Molecules : A Journal of Synthetic Chemistry and Natural …, 2017)
In brackets after ≈: the same amount, converted by molar mass. Read-outs that look alike come from different tables or passages of the source.

Tests used:
[1] = system: Pseudomona aeuroginosa ATCC 27853; experiment: Antimicrobial broth microdilution (CLSI M07-A9); type: cell-based; conditions: for fold lower MIC50 / greater activity than chloramphenicol: Pseudomona aeuroginosa ATCC 27853; for MIC50: Pseudomona aeuroginosa [sic] ATCC 27853
Description: Microbiological studies were performed according to CLSI reference M07-A9 broth microdilution method for bacterial strains and EUCAST definitive method EDef 7.1 for Candida species. Synthesized compounds were tested for their in vitro growth inhibitory activity against Escherichia coli ATCC 35218, Escherichia coli ATCC 25922, Staphylococcus aureus, ATCC 25923, Pseudomona aeuroginosa ATCC 27853, Enterococcus faecalis ATCC29212, Klebsiella pneumoniae ATCC700603 Listeria monocytogenes ATCC7644, Candida albicans ATCC90028, Candida glabrata ATCC 90030, Candida krusei ATCC 6258, Candida parapsilosis ATCC 22019.
The cultures were obtained from Mueller-Hinton broth (Difco) for the bacterial strains and the yeasts were maintained in Roswell Park Memorial Institute (RPMI) medium, after an overnight incubation at 37 °C for both. The inocula of the test microorganisms were adjusted to match an equivalent turbidity of a 0.5 McFarland standard, which was determined using a spectrophotometer; the final inoculum size was determined to be 0.5–2.5 × 10^5 cfu/mL for antibacterial and antifungal assays. The tests were carried out for both mediums at pH = 7 and two-fold serial dilutions were applied. The last well on the microplates, which was containing only the inoculated broth, was kept as control, and the last well with no growth of microorganism was recorded to represent the minimum inhibitory concentration (MIC50) in μg/mL. For both of the antibacterial and antifungal assays, the test compounds and reference drugs were firstly dissolved in DMSO, and further dilutions were performed to the desired concentrations of 1000, 500, 250, 125, 62.5, 31.25, 15.6, 7.8, 3.9 and 1.95 μg/mL using Mueller–Hinton broth and RPMI medium. The completed plates were incubated for 24 h, and at the end of the incubation, resazurin (20 µg/mL) was added into each well to control the growth in the wells. Final plates including microorganism strains were incubated for 2 h. MIC50 values were determined using microplate reader at […] wavelengths; MIC50 readings were performed twice for entire compounds. Chloramphenicol and ketoconazole were used as reference drugs.

COX-1 = molecular target: T1, COX-1 (Ovis aries, UniProt P05979); experiment: Fluorimetric COX-1 inhibition screening kit (BioVision); type: biochemical; conditions: for COX-1 inhibition at the initial concentrations: 10^−3 M and 10^−4 M; for inhibition at 10 µM: 10^−5 M; for inhibition at 1 µM: 10^−6 M; for inhibition at 0.1 µM: 10^−7 M; for inhibition at 0.01 µM: 10^−8 M; for inhibition at 0.001 µM: 10^−9 M
T1 construct: purchased BioVision (Milpitas, CA, USA) K548-100
Description: (§1) Inhibitory potency of the compounds on COX-1 and COX-2 enzymes was determined by using fluorimetric COX-1 and COX-2 inhibition screening kits from BioVision (Milpitas, CA, USA). The experimental protocol as described in the guides provided by the supplier was followed. All of the pipetting were performed using a robotized system to increase speed, accuracy and precision. Fluorescence intensities of the samples were kinetically measured at 25 °C for 5–10 min by monitoring emissions at 587 nm after excitation at 535 nm. Two appropriate points (T1 and T2) in the linear range of the plot were chosen and the corresponding fluorescence values (RFU1 and RFU2) were obtained. The slope for all samples including Enzyme Control (EC) was calculated by dividing the net ΔRFU (RFU2 − RFU1) values by the time ΔT (T2 − T1). Percentage of relative inhibition was calculated by using the following equation:% Relative inhibition = (Slope of EC − Slope of S/Slope of EC) × 100 where S is the term representing the tested compound [51, 52]. […] The IC50 values were calculated using the plots of the enzyme activity against concentrations by applying regression analyses.

COX-2 = molecular target: T2, COX-2 (Homo sapiens, UniProt P35354); experiment: Fluorimetric COX-2 inhibition screening kit (BioVision); type: biochemical; conditions: for COX-2 inhibition at the initial concentrations: 10^−3 M and 10^−4 M; for inhibition at 10 µM: 10^−5 M; for inhibition at 1 µM: read-out: COX 2 Inhibition %; for inhibition at 0.1 µM: 10^−7 M; for inhibition at 0.01 µM: 10^−8 M; for inhibition at 0.001 µM: 10^−9 M
T2 construct: purchased BioVision (Milpitas, CA, USA) K547-100
T2 sequence (P35354 18-604): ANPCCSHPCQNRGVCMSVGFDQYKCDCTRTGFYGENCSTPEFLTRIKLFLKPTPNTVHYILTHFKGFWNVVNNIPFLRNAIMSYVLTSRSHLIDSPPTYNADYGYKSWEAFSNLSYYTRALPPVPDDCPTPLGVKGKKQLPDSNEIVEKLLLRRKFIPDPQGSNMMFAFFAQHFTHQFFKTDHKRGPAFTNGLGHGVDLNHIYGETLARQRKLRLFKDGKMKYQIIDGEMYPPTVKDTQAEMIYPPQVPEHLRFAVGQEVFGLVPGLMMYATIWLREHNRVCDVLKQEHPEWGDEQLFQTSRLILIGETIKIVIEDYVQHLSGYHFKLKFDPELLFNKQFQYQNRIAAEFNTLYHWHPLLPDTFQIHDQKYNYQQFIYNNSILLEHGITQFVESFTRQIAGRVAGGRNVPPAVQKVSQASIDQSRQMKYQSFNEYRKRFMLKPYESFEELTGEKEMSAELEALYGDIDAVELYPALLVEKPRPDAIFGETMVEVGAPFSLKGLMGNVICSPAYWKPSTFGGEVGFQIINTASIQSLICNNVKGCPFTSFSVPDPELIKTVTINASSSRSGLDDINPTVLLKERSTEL
Description: as §1

AChE = AChE (Homo sapiens, UniProt P22303); type: biochemical
Description: Inhibition potency of the test compounds against AChE was determined using Ellman’s method. Enzyme solutions were prepared in gelatin solution (1%, w/v), at the concentration of 2.5 units/mL. […] AChE solution (20 µL/well) and test solution (20 µL/well) were added to phosphate buffer solution (140 µL/well, pH 8.0 ± 0.1), and incubated at 25 °C for 5 min. […] The production of the yellow anion was recorded by multimode microplate reader for 10 min at 412 nm. As a control, an identical solution of the enzyme without the inhibitor was processed. The control and the inhibitor readings were corrected with blank-readings. All processes were assayed in four independent determinations.

Chain of AChE (P22303 32-614): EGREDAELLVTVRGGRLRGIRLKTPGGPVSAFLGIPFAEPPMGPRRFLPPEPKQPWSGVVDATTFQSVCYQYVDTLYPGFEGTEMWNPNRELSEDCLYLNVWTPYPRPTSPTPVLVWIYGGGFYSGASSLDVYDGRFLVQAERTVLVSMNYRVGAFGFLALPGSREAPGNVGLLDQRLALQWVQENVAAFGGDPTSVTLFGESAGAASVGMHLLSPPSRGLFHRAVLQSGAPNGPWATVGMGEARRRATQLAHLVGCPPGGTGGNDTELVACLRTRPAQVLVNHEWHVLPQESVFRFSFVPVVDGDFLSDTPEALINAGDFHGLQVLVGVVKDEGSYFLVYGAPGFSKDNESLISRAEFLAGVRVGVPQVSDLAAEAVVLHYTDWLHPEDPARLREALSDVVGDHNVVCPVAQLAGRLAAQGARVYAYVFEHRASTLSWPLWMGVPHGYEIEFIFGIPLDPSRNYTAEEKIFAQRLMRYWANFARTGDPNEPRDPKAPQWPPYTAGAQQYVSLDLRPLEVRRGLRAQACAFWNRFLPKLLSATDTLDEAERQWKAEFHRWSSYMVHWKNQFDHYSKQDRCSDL
T1 sequence (P05979 25-600): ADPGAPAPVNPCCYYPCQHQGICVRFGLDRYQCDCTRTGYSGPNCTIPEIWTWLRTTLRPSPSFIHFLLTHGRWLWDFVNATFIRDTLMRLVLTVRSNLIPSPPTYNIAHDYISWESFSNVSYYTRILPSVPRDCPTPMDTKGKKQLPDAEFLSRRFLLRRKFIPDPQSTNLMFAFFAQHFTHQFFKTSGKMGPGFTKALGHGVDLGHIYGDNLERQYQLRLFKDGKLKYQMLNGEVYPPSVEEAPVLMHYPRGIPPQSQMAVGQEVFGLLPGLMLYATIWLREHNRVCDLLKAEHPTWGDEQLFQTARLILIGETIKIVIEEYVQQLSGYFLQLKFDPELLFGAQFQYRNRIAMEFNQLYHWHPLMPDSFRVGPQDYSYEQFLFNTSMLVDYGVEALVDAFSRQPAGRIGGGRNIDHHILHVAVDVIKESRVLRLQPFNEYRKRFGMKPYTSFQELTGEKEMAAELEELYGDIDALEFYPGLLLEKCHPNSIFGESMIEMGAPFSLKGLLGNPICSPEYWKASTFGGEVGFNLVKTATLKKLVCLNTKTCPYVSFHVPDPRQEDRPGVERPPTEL

| SMILES | fold lower MIC50 / greater activity than chloramphenicol [1] [fold] | MIC50 [1] [µg/mL] | IC50 (COX-1) [µM] | COX-1 Inhibition (%) (COX-1; 10^-3 M) | COX-1 Inhibition (%) (COX-1; 10^-4 M) | COX-1 inhibition at the initial concentrations (COX-1) | inhibition at 10 µM (COX-1) [%] | inhibition at 1 µM (COX-1) [%] | inhibition at 0.1 µM (COX-1) [%] | inhibition at 0.01 µM (COX-1) [%] | inhibition at 0.001 µM (COX-1) [%] | IC50 (COX-2) [µM] | COX-2 Inhibition (%) (COX-2; 10^-3 M) | COX-2 Inhibition (%) (COX-2; 10^-4 M) | COX-2 inhibition at the initial concentrations (COX-2) | inhibition at 10 µM (COX-2) [%] | inhibition at 0.1 µM (COX-2) [%] | inhibition at 0.01 µM (COX-2) [%] | AChE Inhibition (%) (AChE; 10^-3 M) | AChE Inhibition (%) (AChE; 10^-4 M) | further results |
| --- | --- | --- | --- | --- | --- | --- | --- | --- | --- | --- | --- | --- | --- | --- | --- | --- | --- | --- | --- | --- | --- |
| COc1ccc(-c2nc3ccccc3n2CCN2CCOCC2)cc1 [Compound 2b, 2-(4-Methoxyphenyl)-1-[2-(morpholin-4-yl)ethyl]-1H-benzimidazole] | 16 | 0.0156 (≈ 0.0462 µM) | 8.1 | 90.12 | 87.62 | more than 50% | 59.4 ± 1.24 | 42.8 ± 1.02 | 37.1 ± 0.92 | 26.8 ± 0.87 | 19.6 ± 0.76 | 8.37 | 79.41 | 84.23 | more than 50% | 57.9 ± 1.28 | 38.1 ± 0.97 | 27.4 ± 0.87 | 5.19 | 5.19 | inhibition at 1 µM (COX-2; 10^−6 M): 43.7 ± 1.12%; inhibition at 0.001 µM (COX-2): 21.4 ± 0.74% |
| Clc1ccc(-c2nc3ccccc3n2CCN2CCOCC2)cc1 [Compound 2c, 2-(4-Chlorophenyl)-1-[2-(morpholin-4-yl)ethyl]-1H-benzimidazole] | 2 | 125 (≈ 366 µM) | – | 24.55 | 22.15 | – | – | – | – | – | – | – | 17.85 | 20.99 | – | – | – | – | 5.48 | 5.48 | – |
| CC(C)c1ccc(-c2nc3ccccc3n2CCN2CCOCC2)cc1 [Compound 2e, 2-(4-Isopropylphenyl)-1-[2-(morpholin-4-yl)ethyl]-1H-benzimidazole] | – | 250 (≈ 715 µM) | – | 26.47 | 19.88 | – | – | – | – | – | – | – | 14.26 | 22.61 | – | – | – | – | 17.51 | 17.51 | – |
| CCOc1ccc(-c2nc3ccccc3n2CCN2CCOCC2)cc1 [Compound 2j, 2-(4-Ethoxyphenyl)-1-[2-(morpholin-4-yl)ethyl]-1H-benzimidazole] | – | – | 14.2 | 85.07 | 88.68 | more than 50% | 51.4 ± 1.15 | 44.5 ± 1.07 | 37.7 ± 0.76 | 27.5 ± 0.82 | 23.4 ± 0.61 | 13.1 | 80.66 | 79.23 | more than 50% | 52.5 ± 1.35 | 34 ± 1.06 | 26.9 ± 0.86 | 7.20 | 7.20 | inhibition at 1 µM (COX-2; 10^−6 M): 43.4 ± 1.27%; inhibition at 0.001 µM (COX-2): 20.5 ± 0.76% |
| FC(F)(F)Oc1ccc(-c2nc3ccccc3n2CCN2CCOCC2)cc1 [Compound 2m, 2-(4-Trifluoromethoxyphenyl)-1-[2-(morpholin-4-yl)ethyl]-1H-benzimidazole] | 2 | 125 (≈ 319 µM) | 21.9 | 79.15 | 78.61 | more than 50% | 47.4 ± 1.16 | 42 ± 0.88 | 36.6 ± 0.92 | 26.2 ± 0.79 | 20 ± 0.62 | 22.7 | 64.22 | 59.67 | more than 50% | 46.1 ± 1.13 | 34.5 ± 0.97 | 28.7 ± 0.83 | 32.90 | 32.90 | inhibition at 0.001 µM (COX-2): 22.3 ± 0.52%; inhibition at 1 µM (COX-2): 41.2 ± 1.05% |
